# ChEMBL document CHEMBL1136310, “Pyrazino[1,2-a]indole-1,4-diones, simple analogues of gliotoxin, as selective inhibitors of geranylgeranyltransferase I” (Bioorg Med Chem Lett, 2003)
# Key:
# [1] = biological target: Protein farnesyltransferase (Homo sapiens, UniProt P49354+P49356); experiment: Inhibition of [3H]FPP incorporation into recombinant human Ha-Ras-CVLS by farnesyl transferase; format: protein-complex assay
# [2] = biological target: Geranylgeranyl transferase type I (Homo sapiens, UniProt P49354+P53609); experiment: Inhibition of [3H]-GGPP incorporation into recombinant human Ha-Ras-CVLL by Geranylgeranyl transferase type I; format: protein-complex assay
IC50 [1] [µM],IC50 [2] [µM],SMILES
> 100,> 100,COc1cccc2c1CC1C(=O)N(C)CC(=O)N21 (stereo unspecified)
> 100,> 100,COc1cccc2c1cc1n2C(=O)CN(C)C1=O
> 100,> 100,CN1C(=O)c2cc3ccccc3n2C(=O)C1SSCc1ccccc1 (stereo unspecified)
> 100,> 100,CN1CC(=O)N2c3ccccc3CC2C1=O (stereo unspecified)
> 100,> 100,CN1CC(=O)n2c(cc3ccccc32)C1=O
> 100,> 100,COc1cccc2c1cc1n2C(=O)C(SSCc2ccccc2)N(C)C1=O (stereo unspecified)
748,90.3,COc1cccc2c1cc1n2C(=O)C(SC(C)=O)N(C)C1=O (stereo unspecified)

SMILES,IC50 [1] [µM],IC50 [2] [µM]
CN1C(=O)[C@]23CC4=CC=C[C@H](O)[C@H]4N2C(=O)[C@@]1(CO)SS3 [GLIOTOXIN],80,17
